Publication PMC2784932 (Biochemistry, 2009)

Tests used:
[1] = system: (Pro-Hyp-Gly)10; assay: DSC of triple-helical peptide in presence of Phe; details: PBS pH 7, peptide c=1mg/ml, molar ratio peptide:Phe = 1:200
[2] = system: T4Y; assay: Effect of isolated Phe on self-association by turbidity; details: T4Y c=7mg/ml, 44°C, PBS, 1peptide:60F
[3] = system: FT4Y; assay: as above; details: FT4Y c=3mg/ml, 46°C, data not shown
[4] = target: T4, type IV collagen model peptide (POG)3QOGLOGLOG(POG)4; assay: dynamic light scattering
[5] = target: T4, type IV collagen model peptide (POG)3QOGLOGLOG(POG)4; assay: critical concentration

stoichiometry N [4] | critical concentration [5] [mg/mL] | Compound | effect on thermal stability of (Pro-Hyp-Gly)10 by DSC [1] | effect on self-association of T4Y [2] | effect on self-association of FT4Y [3]
 |  | N[C@@H](Cc1ccccc1)C(=O)O [Phe, L-phenylalanine] | slight destabilization | substantial delay in self-association | substantial delay in self-association
3 | 5.9 | T4, type IV collagen model peptide (POG)3QOGLOGLOG(POG)4 |  |  | 
